From US20090226544A1, “Pharmaceutical Compound For Treating Inflammation, Pain, Arthritis And Spinitis, And Proliferating Osteoblastic Cell And Method For Producing Thereof” (priority 2005, published 2009)

How the values were obtained:
Assay type in all cases: in vivo
SD male albino rats [1] = assay: Carrageenan-induced hind paw edema, Example 4 administered for 2 weeks (Experimental Example 5); conditions: dose 5 mg/kg; 2-week test; 2 h after carrageenan
SD male albino rats [2] = assay: as above; conditions: dose 5 mg/kg, 2-week test
Description: SD male albino rats weighing 150 to 170 g, which were fasted for 16 hours before experimental use, were used as test animals to induce edema by subcutaneously injecting 0.1 ml of a 1% type IV lambda carrageenan-saline solution as a […] to the subplantar of the right hind paw of each of the albino rats (Winter et al., 1962). The paw volume was measured with a plethysmometer (Ugo Basile, Italy) 0.5, 1, 2, 4 and 6 hours after injection of carrageenan and compared with the paw volume measured before injection of carrageenan for calculation of an increase (%) of paw volume. In addition, an increase (%) of paw volume for a control group was compared with increases (%) of paw volume for treatment groups for obtaining a reduction ratio (%) of paw volume. The pharmaceutical compositions prepared in Examples 1 through 4 were orally administered to the […] 30 minutes before injection of carrageenan. The extent of paw edema (or swelling) was obtained based on the edema enhancement rate and edema inhibition rate measured using the following relationship. […] Phenylbutazone was used as a positive control. In order to examine the inhibitory effect of the pharmaceutical composition prepared in Example 4 of the present invention on acute inflammation induced by carrageenan, […] Experimental Example 1 and the results are summarized in Table 4. […]

SD male albino rats [3] = assay: Carrageenan-induced hind paw edema, Example 4 at 30-600 mg/kg (Experimental Example 4)
Description: SD male albino rats weighing 150 to 170 g, which were fasted for 16 hours before experimental use, were used as test animals to induce edema by subcutaneously injecting 0.1 ml of a 1% type IV lambda carrageenan-saline solution as a […] to the subplantar of the right hind paw of each of the albino rats (Winter et al., 1962). The paw volume was measured with a plethysmometer (Ugo Basile, Italy) 0.5, 1, 2, 4 and 6 hours after injection of carrageenan and compared with the paw volume measured before injection of carrageenan for calculation of an increase (%) of paw volume. In addition, an increase (%) of paw volume for a control group was compared with increases (%) of paw volume for treatment groups for obtaining a reduction ratio (%) of paw volume. The pharmaceutical compositions prepared in Examples 1 through 4 were orally administered to the […] 30 minutes before injection of carrageenan. The extent of paw edema (or swelling) was obtained based on the edema enhancement rate and edema inhibition rate measured using the following relationship. […] Phenylbutazone was used as a positive control. In order to examine the inhibitory effect of the pharmaceutical composition prepared in Example 4 of the present invention on acute inflammation induced by carrageenan, […] Experimental Example 1 and the results are summarized in Table 4.

ICR male mice = assay: Analgesic effect test, acetic acid-induced writhing (Experimental Example 3); conditions: dose 50 mg/kg oral
Description: The pharmaceutical compositions prepared in Examples 1 through 4 were orally administered to ICR (Institute of Cancer Research) male mice weighing 25 to 28 g, which were fasted for 12 hours before experimental use. After 30 minutes of administration, 0.7% acetic acid-saline solution was intraperitoneally injected to the mice in a dose of […] per 10 g of body weight and from 5 minutes after administration, the number of writhings occurring to each mouse was counted for 10 minutes (Koster et al., 1959) and the results are summarized in Table 3. Phenylbutazone was used as a positive control.

SD male albino rats [4] = assay: Acute inflammation test by carrageenan-induced hind paw edema, composition given 30 minutes before carrageenan (Experimental Example 1); conditions: dose 50 mg/kg oral
Description: (§1) SD male albino rats weighing 150 to 170 g, which were fasted for 16 hours before experimental use, were used as test animals to induce edema by subcutaneously injecting 0.1 ml of a 1% type IV lambda carrageenan-saline solution as a […] to the subplantar of the right hind paw of each of the albino rats (Winter et al., 1962). The paw volume was measured with a plethysmometer (Ugo Basile, Italy) 0.5, 1, 2, 4 and 6 hours after injection of carrageenan and compared with the paw volume measured before injection of carrageenan for calculation of an increase (%) of paw volume. In addition, an increase (%) of paw volume for a control group was compared with increases (%) of paw volume for treatment groups for obtaining a reduction ratio (%) of paw volume. […] The extent of paw edema (or swelling) was obtained based on the edema enhancement rate and edema inhibition rate measured using the following relationship.

SD male albino rats [5] = assay: Acute inflammation test by carrageenan-induced hind paw edema after 2 weeks of administration (Experimental Example 2); conditions: dose 50 mg/kg, 2-week test
Description: as §1

SMILES | Increased percent of paw volume (%) (SD male albino rats [1]) | Increased percent of paw volume (%) (SD male albino rats [2]; 0.5 h after carrageenan) | reduction ratio (%) of paw volume vs control (SD male albino rats [2]; 0.5 h after carrageenan) [%] | Increased percent of paw volume (%) (SD male albino rats [2]; 1 h after carrageenan) | reduction ratio (%) of paw volume vs control (SD male albino rats [2]; 1 h after carrageenan) [%] | reduction ratio (%) of paw volume vs control (SD male albino rats [2]; 2 h after carrageenan) [%] | Increased percent of paw volume (%) (SD male albino rats [2]; 4 h after carrageenan) | reduction ratio (%) of paw volume vs control (SD male albino rats [2]; 4 h after carrageenan) [%] | Increased percent of paw volume (%) (SD male albino rats [2]; 6 h after carrageenan) | reduction ratio (%) of paw volume vs control (SD male albino rats [2]; 6 h after carrageenan) [%] | Increased percent of paw volume (%) (SD male albino rats [3]; 0.5 h after carrageenan) | reduction ratio (%) of paw volume vs control (SD male albino rats [3]; 0.5 h after carrageenan) [%] | Increased percent of paw volume (%) (SD male albino rats [3]; 1 h after carrageenan) | reduction ratio (%) of paw volume vs control (SD male albino rats [3]; 1 h after carrageenan) [%] | Increased percent of paw volume (%) (SD male albino rats [3]; 2 h after carrageenan) | reduction ratio (%) of paw volume vs control (SD male albino rats [3]; 2 h after carrageenan) [%] | Increased percent of paw volume (%) (SD male albino rats [3]; 4 h after carrageenan) | reduction ratio (%) of paw volume vs control (SD male albino rats [3]; 4 h after carrageenan) [%] | Increased percent of paw volume (%) (SD male albino rats [3]; 6 h after carrageenan) | reduction ratio (%) of paw volume vs control (SD male albino rats [3]; 6 h after carrageenan) [%] | further results
O=C(O)COC(=O)Cc1ccccc1Nc1c(Cl)cccc1Cl [Aceclofenac, aceclofenac] | 19.7 ± 2.0 | 10.1 ± 1.4 | 62.6 | 15.1 ± 1.7 | 51.4 | 59.2 | 55.3 ± 3.9 | 29.4 | 61.0 ± 3.5 | 19.4 | 12.1 ± 2.6 | 34.8 | 12.1 ± 3.5 | 53.7 | 16.7 ± 3.0 | 58.7 | 36.9 ± 5.1 | 56.1 | 50.6 ± 3.9 | 31.5 | –
O=C(O)Cc1ccccc1Nc1c(Cl)cccc1Cl [Diclofenac, diclofenac] | 22.0 ± 2.0 | 12.0 ± 1.8 | 55.5 | 13.7 ± 1.4 | 55.6 | 54.4 | 49.2 ± 3.9 | 37.1 | 51.8 ± 4.0 | 31.50 | 9.6 ± 1.6 | 47.5 | 13.6 ± 2.6 | 48.0 | 17.7 ± 3.1 | 56.3 | 37.24 ± 5.9 | 55.7 | 34.89 ± 2.8 | 52.8 | –
CCCCC1C(=O)N(c2ccccc2)N(c2ccccc2)C1=O [Phenylbutazone, phenylbutazone] | – | – | – | – | – | – | – | – | – | – | – | – | – | – | – | – | – | – | – | – | Number of writhing (ICR male mice; counted for 10 minutes): 12.3 ± 0.9; Inhibition rate (%) (ICR male mice; writhing): 50.1%; Increased percent of paw volume (%) (SD male albino rats [4]; 1 h after carrageenan): 14.0 ± 0.9 %; Increased percent of paw volume (%) (SD male albino rats [4]; 2 h after carrageenan): 25.0 ± 3.7 %; Increased percent of paw volume (%) (SD male albino rats [4]; 4 h after carrageenan): 37.8 ± 4.3%; Increased percent of paw volume (%) (SD male albino rats [4]; 6 h after carrageenan): 35.0 ± 2.4 %; Increased percent of paw volume (%) (SD male albino rats [5]; 1 h after carrageenan): 13.2 ± 0.8 %; Increased percent of paw volume (%) (SD male albino rats [5]; 2 h after carrageenan): 19.3 ± 2.4 %; Increased percent of paw volume (%) (SD male albino rats [5]; 4 h after carrageenan): 39.1 ± 5.0 %; Increased percent of paw volume (%) (SD male albino rats [5]; 6 h after carrageenan): 35.0 ± 2.4 %
